Test results: patent US5849735A, “Tricyclic benzazepine vasopressin antagonists” (American Cyanamid Company, priority 1995, dated 1998)

How the values were obtained:
[1] = biological target: T1, vasopressin V1 receptor (rat liver plasma membranes) (Rattus norvegicus, UniProt P30560); test: Binding Assay to Rat Hepatic V1 Receptors
T1 construct: Rat liver plasma membranes expressing the vasopressin V1 receptor subtypes; from tissue; host or cells: rat liver plasma membranes
Method: Binding Assay to Rat Hepatic V1 Receptors
Rat liver plasma membranes expressing the vasopressin V1 receptor subtypes are isolated by sucrose density gradient according to the method described by Lesko et al., (1973). These membranes are quickly suspended in 50.0 mM Tris.HCl buffer, pH 7.4, containing 0.2% bovine serum albumin (BSA) and 0.1 mM phenylmethylsulfonylfluoride (PMSF) and kept frozen at -70° C. until used in subsequent binding experiments. For binding experiments, the following is added to the wells of a ninety-six well format microtiter plate: […] of […] buffer containing 10.0 mM MgCl2, 0.2% heat inactivated BSA and a mixture of protease inhibitors: leupeptin, 1.0 mg %; aprotinin, 1.0 mg %; 1,10-phenanthroline,2.0 mg %; trypsin inhibitor, 10.0 mg % and 0.1 mM PMSF, 20.0 ml of [phenylalanyl-3,4,5, -^3 H] vasopressin (S.A. 45.1 Ci/mmole) […], and the reaction initiated by the addition of 80 ml of tissue membranes containing 20 mg of tissue protein. The plates are kept undisturbed on the bench top at room temperature for 120 min. to reach equilibrium. Non-specific samples are assayed in the presence of 0.1 mM of the unlabeled […] phenylalanylvasopressin, added in 20.0 ml volume.
For test compounds, these are solubilized in 50% dimethylsulfoxide (DMSO) and added in 20.0 ml volume to a final incubation volume of […]. Upon completion of binding, the content of each well is filtered off, using a Brandel® cell Harvester (Gaithersburg, Md.). The radioactivity trapped on the filter disk by the ligand-receptor complex is assessed by liquid scintillation counting in a Packard LS Counter, with an efficiency of 65% for tritium.

[2] = biological target: T2, vasopressin V2 receptor (rat kidney medullary) (Rattus norvegicus, UniProt Q00788); test: Binding Assay to Rat Kidney Medullary V2 Receptors
T2 construct: Medullary tissues from rat kidneys are dissected out; from tissue; host or cells: rat kidney medulla membranes
Method: Binding Assay to Rat Kidney Medullary V2 Receptors
Medullary tissues from rat kidneys are dissected out, cut into small pieces and soaked in a […] sodium chloride solution containing 1.0 mM EDTA with many changes of the liquid phase, until the solution is clear of blood. […] The tissue is homogenized in a 0.25M sucrose solution containing 1.0 mM EDTA and 0.1 mM PMSF using a Potter-Elvehjem homogenizer with a teflon pestle. The homogenate is filtered through several layers (4 layers) of cheese cloth. The filtrate is rehomogenized using a dounce homogenizer, with a tight fitting pestle. The final homogenate is centrifuged at 1500×g for 15 min. The nuclear pellet is discarded and the supernatant fluid recentrifuged at 40,000×g for 30 min. The resulting pellet formed contains a dark inner part with the exterior, slightly pink. The pink outer part is suspended in a small amount of 50.0 mM Tris.HCl buffer, pH 7.4. The protein content is determined by the Lowry's method (Lowry et al., J. Biol. Chem., 1953). The membrane suspension is stored at -70° C., in 50.0 mM Tris.HCl, containing 0.2% inactivated BSA and 0.1 mM PMSF in aliquots of 1.0 ml containing 10.0 mg protein per ml of suspension until sue in subsequent binding experiments.
For binding experiments, the following is added in ml volume to wells of a 96 well format of a microtiter plate: 100.0 ml of 100.0 mM Tris.HCl buffer containing 0.2% heat inactivated BSA, 10.0 mM MgCL2 and a mixture of protease inhibitors: leupeptin, 1.0 mg %; aprotinin, 1.0 mg % 1,10-phenanthroline, 2.0 mg %; trypsin inhibitor, and 0.1 mM PMSF, 20.0 ml of [^3 H] Arginine^8, vasopressin (S.A. 75.0 Ci/mmole) at 0.8 nM and the reaction initiated by the addition of 80.0 ml of tissue membranes (200.0 mg tissue protein). The plates are left undisturbed on the bench top for 120 minutes to reach equilibrium. Non-specific binding is assessed in the presence of 1.0 mM of unlabeled ligand, added in 20 ml volume. For test compounds, these are solubilized in 50% dimethylsulfoxide (DMSO) and added in 20.0 ml volume to a final incubation volume of […]. Upon completion of binding, the content of each well is filtered off, using a Brandel® cell Harvester (Gaithersburg, Md.). The radioactivity trapped on the filter disk by the ligand-receptor complex is assessed by liquid scintillation counting in a Parkard LS Counter, with an efficiency of 65% for tritium.

[3] = biological target: T3, oxytocin receptor (rat uteri) (Rattus norvegicus, UniProt P70536); test: Oxytocin Receptor Binding; parameters: species or system rat (Sprague-Dawley); details: for IC50: [3H]oxytocin displacement
T3 construct: The uteri are dissected out, cleaned of fat and connective tissues; from tissue; host or cells: uteri of diethylstilbestrol-treated female Sprague-Dawley rats
T3 sequence (P70536 1-388): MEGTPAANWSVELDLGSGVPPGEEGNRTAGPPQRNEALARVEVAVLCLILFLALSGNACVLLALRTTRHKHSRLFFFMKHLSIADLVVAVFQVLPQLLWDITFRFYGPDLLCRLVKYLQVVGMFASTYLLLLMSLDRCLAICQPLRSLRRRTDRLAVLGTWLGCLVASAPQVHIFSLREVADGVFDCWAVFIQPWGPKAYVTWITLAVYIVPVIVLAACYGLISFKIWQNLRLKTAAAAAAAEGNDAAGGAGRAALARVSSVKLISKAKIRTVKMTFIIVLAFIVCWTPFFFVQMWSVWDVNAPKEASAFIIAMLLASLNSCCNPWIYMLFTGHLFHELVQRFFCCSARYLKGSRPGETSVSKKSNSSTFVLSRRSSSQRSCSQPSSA
Method: Oxytocin Receptor Binding
Female Sprague-Dawley rats weighing approximately 200-250 g are injected intramuscularly (i.m.) with 0.3 mg/kg of body weight of diethylstilbestrol (DES). The rats are sacrificed 18 hours later under pentobarbital anesthesia. The uteri are dissected out, cleaned of fat and connective tissues and rinsed in 50 ml of normal saline. The tissue pooled from six rats is homogenized in 50 ml of […] Tris. HCl, containing 0.5 mM dithiothreitol and 1.0 mM EDTA, adjusted to pH 7.4, using a polytron at setting 6 with three passes of 10 sec each. The homogenate is passed through two (2) layers of cheesecloth and the filtrate centrifuged at 1000×g for 10 minutes. The clear supernatant is removed and recentrifuged at 165,000×g for 30 minutes. The resulting pellet containing the oxytocin receptors is resuspended in 50.0 mM Tris.HCl containing 5.0 mM MgCl2 at pH 7.4, to give a protein concentration of 2.5 mg/ml of tissue suspension. This preparation is used in subsequent binding assays with [^3 H]oxytocin.
Binding of 3,5-[^3 H]Oxytocin ([^3 H]OT) to its receptors is done in microtiter plates using [^3 H]OT, at various concentrations, in an assay buffer of 50.0 mM Tris.HCI, pH 7.4 and containing 5.0 mM MgCl2, and a mixture of protease inhibitors: BSA, 0.1 mg; aprotinin, 1.0 mg; 1,10-phenanthroline, 2.0 mg; […], 10.0 mg; and PMSF, 0.3 mg per 100 ml of buffer solution. Non-specific binding is determined in the presence of 1.0 uM unlabeled OT. The binding reaction is terminated after 60 minutes, at 22° C., by rapid filtration through glass fiber filters using a Brandel® cell harvester (Biomedical Research and Development Laboratories, Inc., Gaithersburg, Md.). Competition experiments are conducted at equilibrium using 1.0 nM [^3 H]OT and varying the concentration of the displacing agents. The concentrations of agent displacing 50% of [^3 H]OT at its sites (IC50) are calculated by a computer assisted LUNDON-2 program (LUNDON SOFTWARE INC., Ohio, USA).

T1 sequence (P30560 whole entry): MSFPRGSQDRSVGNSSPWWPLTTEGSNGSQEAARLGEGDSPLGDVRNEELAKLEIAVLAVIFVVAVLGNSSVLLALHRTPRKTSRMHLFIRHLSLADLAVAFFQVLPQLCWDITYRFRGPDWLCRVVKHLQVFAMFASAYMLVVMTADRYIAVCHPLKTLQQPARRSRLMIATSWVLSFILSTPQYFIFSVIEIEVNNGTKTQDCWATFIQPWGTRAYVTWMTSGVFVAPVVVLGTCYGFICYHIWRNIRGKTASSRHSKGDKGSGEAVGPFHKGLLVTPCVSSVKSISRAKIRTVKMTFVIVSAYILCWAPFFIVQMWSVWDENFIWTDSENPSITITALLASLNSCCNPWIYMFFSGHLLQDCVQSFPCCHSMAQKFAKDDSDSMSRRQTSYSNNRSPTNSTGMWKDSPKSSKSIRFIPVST
T2 sequence (Q00788 whole entry): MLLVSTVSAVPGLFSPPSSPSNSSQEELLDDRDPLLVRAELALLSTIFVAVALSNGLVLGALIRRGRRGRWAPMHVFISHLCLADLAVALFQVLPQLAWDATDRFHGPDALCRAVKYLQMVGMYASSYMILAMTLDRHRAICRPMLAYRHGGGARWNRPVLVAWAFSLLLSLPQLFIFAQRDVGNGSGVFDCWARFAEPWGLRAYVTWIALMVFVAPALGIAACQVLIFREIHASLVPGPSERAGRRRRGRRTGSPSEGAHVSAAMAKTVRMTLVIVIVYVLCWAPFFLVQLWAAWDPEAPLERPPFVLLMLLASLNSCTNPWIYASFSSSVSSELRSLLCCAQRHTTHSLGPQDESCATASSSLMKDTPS

| Compound | IC50 ([1]; rat hepatic V1 receptors) | IC50 ([2]; rat kidney medullary V2 receptors) | inhibition at 1 µM [3] | inhibition at 1 µM ([1]; 2 h, rat hepatic V1) | inhibition at 1 µM ([2]; rat kidney V2, at 1 μM) | IC50 [3] | inhibition at 10 µM [3] | V2 % ([2]; rat kidney V2, "at μM" (concentration not given)) | inhibition at 10 µM ([1]; 2 h, rat hepatic V1, at 10 μM) | inhibition at 10 µM ([2]; rat kidney V2, at 10 μM) |
| --- | --- | --- | --- | --- | --- | --- | --- | --- | --- | --- |
| Cc1ccc(F)cc1C(=O)Nc1ccc(C(=O)N2Cc3ccccc3Oc3ccccc32)cn1 [Example 1, N-[5-(Dibenz[b,f][1,4]oxazepin-10(11H)-ylcarbonyl)-2-pyridinyl]-5-fluoro-2-methylbenzamide] | 0.24 µM | 0.054 µM | 12% | – | – | – | – | – | – | – |
| O=C(c1ccc(-c2ccccc2)cc1)N1Cc2ccccc2Nc2ccccc21 [Example 25] | – | – | – | 100% | 39% | 0.113 µM | 94% | – | – | – |
| O=C(Nc1ccc(C(=O)N2Cc3ccccc3Cc3ccccc32)cn1)c1ccccc1-c1ccccc1 [Example 12, N-[5-[(6,11-Dihydro-5H-dibenz[b,e]azepin-5-yl)carbonyl]-2-pyridinyl][1,1'-biphenyl]-2-carboxamide] | – | – | – | 100% | – | 0.61 µM | 76% | 90% | – | – |
| O=C(c1ccccc1)c1ccc(C(=O)N2Cc3ccccc3CCc3ccccc32)cc1 [Example 33, 5-(4-Benzoylbenzoyl)5,6,11,12-tetrahydrodibenz[b,f]azocine] | – | – | 37% | – | – | – | – | – | 10% | 16% |
